In ChEMBL document CHEMBL1136067, “The activity of diguanidino and 'reversed' diamidino 2,5-diarylfurans versus Trypanosoma cruzi and Leishmania donovani” (Bioorg Med Chem Lett, 2003):

Key:
Trypanosoma cruzi = assay: Inhibitory activity against Trypanosoma cruzi; format: functional, organism-based
Nucleic Acid [1] = test system: Nucleic Acid
Description: DNA binding affinity measured as an increase in thermal melting of poly(dA.dT)2

Nucleic Acid [2] = test system: Nucleic Acid; remark: listed apart in the source
Leishmania donovani [3] = assay: Inhibitory activity against Leishmania donovani (amastigote); format: functional, organism-based
[4] = Cell toxicity was evaluated; format: functional
Leishmania donovani [5] = assay: Inhibitory activity against Leishmania donovani (macrophage); format: functional, organism-based

Compound: COc1cc(NC(=N)c2ccccn2)ccc1-c1ccc(-c2ccc(NC(=N)c3ccccn3)cc2OC)o1
- IC50 (Trypanosoma cruzi): 0.57 µM
- ΔTm (Nucleic Acid [1]): 19
- ΔTm (Nucleic Acid [2]): 7.8
- IC50 (Leishmania donovani [3]; read-out: IC50): 0.1 µM
- IC50 [4]: 12.7 µM
- IC50 (Leishmania donovani [5]): 0.48 µM

Compound: N=C(N)c1ccc(OCCCCCOc2ccc(C(=N)N)cc2)cc1 [PENTAMIDINE]
- IC50 (Trypanosoma cruzi): 7.1 µM
- ΔTm (Nucleic Acid [1]): 12.8
- ΔTm (Nucleic Acid [2]): 4.8
- IC50 (Leishmania donovani [3]): 2.6 µM
- IC50 [4]: 4.2 µM
- IC50 (Leishmania donovani [5]): 9.3 µM

Compound: N=C(N)Nc1ccc(-c2ccc(-c3ccc(N=C(N)N)c(Cl)c3)o2)cc1Cl
- IC50 (Trypanosoma cruzi): 44 µM
- ΔTm (Nucleic Acid [1]): 12.7
- ΔTm (Nucleic Acid [2]): 2.6
- IC50 (Leishmania donovani [3]; read-out: IC50): > 50 µM
- IC50 [4]: 35.7 µM
- IC50 (Leishmania donovani [5]): > 6.3 µM

Compound: Cc1cc(NC(=N)N)ccc1-c1ccc(-c2ccc(NC(=N)N)cc2C)o1
- IC50 (Trypanosoma cruzi): 3.2 µM
- ΔTm (Nucleic Acid [1]): 17.8
- ΔTm (Nucleic Acid [2]): 6.9
- IC50 (Leishmania donovani [3]; read-out: IC50): 3.3 µM
- IC50 [4]: 14.6 µM
- IC50 (Leishmania donovani [5]): > 6 µM

Compound: CSc1cc(-c2ccc(-c3ccc(/N=C(\N)c4ccccn4)c(SC)c3)o2)ccc1/N=C(\N)c1ccccn1
- IC50 (Trypanosoma cruzi): 0.15 µM
- ΔTm (Nucleic Acid [1]): 1
- ΔTm (Nucleic Acid [2]): 0
- IC50 (Leishmania donovani [3]; read-out: IC50): 0.35 µM
- IC50 [4]: 7.3 µM
- IC50 (Leishmania donovani [5]): 0.15 µM

Compound: N=C(N)Nc1ccc(-c2ccc(-c3ccc(NC(=N)N)cc3C(F)(F)F)o2)c(C(F)(F)F)c1
- IC50 (Trypanosoma cruzi): 31.2 µM
- ΔTm (Nucleic Acid [1]): 5.9
- ΔTm (Nucleic Acid [2]): 0
- IC50 (Leishmania donovani [3]; read-out: IC50): 14.8 µM
- IC50 [4]: 11.3 µM
- IC50 (Leishmania donovani [5]): > 5.6 µM

Compound: N=C(Nc1ccc(-c2ccc(-c3ccc(NC(=N)c4ccccn4)c(Cl)c3)o2)cc1Cl)c1ccccn1
- IC50 (Trypanosoma cruzi): 0.5 µM
- ΔTm (Nucleic Acid [1]): 0.6
- ΔTm (Nucleic Acid [2]): 1.5
- IC50 (Leishmania donovani [3]; read-out: IC50): 0.51 µM
- IC50 [4]: 128 µM

Compound: CCOc1cc(-c2ccc(-c3ccc(N=C(N)N)c(OCC)c3)o2)ccc1N=C(N)N
- IC50 (Trypanosoma cruzi): 152 µM
- ΔTm (Nucleic Acid [1]): 16.5
- ΔTm (Nucleic Acid [2]): 6.8
- IC50 (Leishmania donovani [3]; read-out: IC50): 11.2 µM
- IC50 [4]: 74 µM
- IC50 (Leishmania donovani [5]): > 40 µM

Compound: COc1cc(NC(=N)N)ccc1-c1ccc(-c2ccc(NC(=N)N)cc2OC)o1
- IC50 (Trypanosoma cruzi): 1.3 µM
- ΔTm (Nucleic Acid [1]): 15.2
- ΔTm (Nucleic Acid [2]): 2.8
- IC50 (Leishmania donovani [3]; read-out: IC50): 18.7 µM
- IC50 [4]: 20 µM
- IC50 (Leishmania donovani [5]): 5.2 µM

Compound: COc1cc(-c2ccc(-c3ccc(N=C(N)N)c(OC)c3)o2)ccc1N=C(N)N
- IC50 (Trypanosoma cruzi): 29 µM
- ΔTm (Nucleic Acid [1]): 15.4
- ΔTm (Nucleic Acid [2]): 6.2
- IC50 (Leishmania donovani [3]; read-out: IC50): 14.5 µM
- IC50 [4]: 39.6 µM
- IC50 (Leishmania donovani [5]): > 29 µM

Compound: N=C(Nc1ccc(-c2ccc(-c3ccc(NC(=N)c4ccccn4)cc3)o2)cc1)c1ccccn1
- IC50 (Trypanosoma cruzi): 9.6 µM
- ΔTm (Nucleic Acid [1]): 19.6
- ΔTm (Nucleic Acid [2]): 7.5
- IC50 (Leishmania donovani [3]; read-out: IC50): 0.55 µM
- IC50 [4]: 17.1 µM
- IC50 (Leishmania donovani [5]): 1.45 µM

Compound: N=C(N)Nc1ccc(-c2ccc(-c3ccc(NC(=N)N)cc3)o2)cc1
- IC50 (Trypanosoma cruzi): 86 µM
- ΔTm (Nucleic Acid [1]): 21.6
- ΔTm (Nucleic Acid [2]): 10.8
- IC50 (Leishmania donovani [3]; read-out: IC50): 10.9 µM
- IC50 [4]: 143 µM
- IC50 (Leishmania donovani [5]): > 24 µM

Compound: N=C(N)Nc1ccc(-c2ccc(-c3ccc(NC(=N)N)cc3Cl)o2)c(Cl)c1
- IC50 (Trypanosoma cruzi): 27 µM
- ΔTm (Nucleic Acid [1]): 26.1
- ΔTm (Nucleic Acid [2]): 4.7
- IC50 (Leishmania donovani [3]; read-out: IC50): 6.2 µM
- IC50 [4]: 14.2 µM
- IC50 (Leishmania donovani [5]): > 6.8 µM

Compound: COc1cc(-c2ccc(-c3ccc(/N=C(\N)c4ccccn4)c(OC)c3)o2)ccc1/N=C(\N)c1ccccn1
- IC50 (Trypanosoma cruzi): 1 µM
- ΔTm (Nucleic Acid [1]): 15.2
- ΔTm (Nucleic Acid [2]): 6.6
- IC50 (Leishmania donovani [3]; read-out: IC50): 0.29 µM
- IC50 [4]: 7.9 µM
- IC50 (Leishmania donovani [5]): 0.16 µM

Compound: O=C(Cn1ccnc1[N+](=O)[O-])NCc1ccccc1 [BENZNIDAZOLE]
- IC50 (Trypanosoma cruzi): 1.27 µM

Compound: Cc1c(N=C(N)N)ccc(-c2ccc(-c3ccc(N=C(N)N)c(C)c3C)o2)c1C
- IC50 (Trypanosoma cruzi): 2.7 µM
- ΔTm (Nucleic Acid [1]): 3.8
- ΔTm (Nucleic Acid [2]): 1.3
- IC50 (Leishmania donovani [3]; read-out: IC50): 4.2 µM
- IC50 [4]: 33.4 µM
- IC50 (Leishmania donovani [5]): > 19 µM

Compound: N=C(N)c1ccc(-c2ccc(-c3ccc(C(=N)N)cc3)o2)cc1 [FURAMIDINE]
- IC50 (Trypanosoma cruzi): 23.3 µM
- ΔTm (Nucleic Acid [1]): 25
- ΔTm (Nucleic Acid [2]): 11.7
- IC50 (Leishmania donovani [3]; read-out: IC50): 2.7 µM
- IC50 [4]: 6.4 µM

Compound: CSc1cc(-c2ccc(-c3ccc(N=C(N)N)c(SC)c3)o2)ccc1N=C(N)N
- IC50 (Trypanosoma cruzi): 114 µM
- ΔTm (Nucleic Acid [1]): 12.2
- ΔTm (Nucleic Acid [2]): 2.6
- IC50 (Leishmania donovani [3]; read-out: IC50): 22.6 µM
- IC50 [4]: 68 µM
- IC50 (Leishmania donovani [5]): > 19 µM

Compound: CCCCCCCCCCCCCCCCOP(=O)([O-])OCC[N+](C)(C)C [MILTEFOSINE]
- IC50 (Leishmania donovani [5]): 1 µM

Compound: Cc1cc(NC(=N)c2ccccn2)ccc1-c1ccc(-c2ccc(NC(=N)c3ccccn3)cc2C)o1
- IC50 (Trypanosoma cruzi): 0.21 µM
- ΔTm (Nucleic Acid [1]): 22.6
- ΔTm (Nucleic Acid [2]): 8.9
- IC50 (Leishmania donovani [3]; read-out: IC50): 0.38 µM
- IC50 [4]: 11.3 µM
- IC50 (Leishmania donovani [5]): 0.6 µM

Compound: Cc1c(/N=C(\N)c2ccccn2)ccc(-c2ccc(-c3ccc(/N=C(\N)c4ccccn4)c(C)c3C)o2)c1C
- IC50 (Trypanosoma cruzi): 0.91 µM
- ΔTm (Nucleic Acid [1]): 13.8
- ΔTm (Nucleic Acid [2]): 4.2
- IC50 (Leishmania donovani [3]; read-out: IC50): 1.14 µM
- IC50 [4]: 60.6 µM
- IC50 (Leishmania donovani [5]): 3.6 µM

Compound: CC(C)Oc1cc(NC(=N)N)ccc1-c1ccc(-c2ccc(NC(=N)N)cc2OC(C)C)o1
- IC50 (Trypanosoma cruzi): 35 µM
- ΔTm (Nucleic Acid [1]): 12
- ΔTm (Nucleic Acid [2]): 1.5
- IC50 (Leishmania donovani [3]; read-out: IC50): 9.65 µM
- IC50 [4]: 16 µM
- IC50 (Leishmania donovani [5]): > 6 µM

Compound: N=C(Nc1ccc(-c2ccc(-c3ccc(NC(=N)c4ccccn4)cc3Cl)o2)c(Cl)c1)c1ccccn1
- IC50 (Trypanosoma cruzi): 0.49 µM
- ΔTm (Nucleic Acid [1]): 5.2
- ΔTm (Nucleic Acid [2]): 0
- IC50 (Leishmania donovani [3]; read-out: IC50): 0.66 µM
- IC50 [4]: 8 µM
- IC50 (Leishmania donovani [5]): 0.13 µM

Compound: N=C(Nc1ccc(-c2ccc(-c3ccc(NC(=N)c4ccccc4)cc3)o2)cc1)c1ccccc1
- IC50 (Trypanosoma cruzi): 13.7 µM
- ΔTm (Nucleic Acid [1]): 28
- ΔTm (Nucleic Acid [2]): 15
- IC50 (Leishmania donovani [3]; read-out: IC50): > 100 µM
- IC50 [4]: 3.8 µM
- IC50 (Leishmania donovani [5]): > 8 µM
